Data on ten compounds can be found in ChEMBL document CHEMBL5291721, “A preclinical secondary pharmacology resource illuminates target-adverse drug reaction associations of marketed drugs” (Nat Commun, 2023).

Where only a bound is given, the exact number is not on record here.

Some targets named below: D(1B) dopamine receptor (Homo sapiens, UniProt P21918); Substance-P receptor (Homo sapiens, UniProt P25103); D(1A) dopamine receptor (Homo sapiens, UniProt P21728); Estrogen receptor beta (Homo sapiens, UniProt Q92731).
Assay [1] deals with 5-hydroxytryptamine receptor 5A (Homo sapiens, UniProt P47898).
The next assay concerns the target T1, D(4) dopamine receptor (Homo sapiens, UniProt P21917).
T1 sequence (P21917 whole entry): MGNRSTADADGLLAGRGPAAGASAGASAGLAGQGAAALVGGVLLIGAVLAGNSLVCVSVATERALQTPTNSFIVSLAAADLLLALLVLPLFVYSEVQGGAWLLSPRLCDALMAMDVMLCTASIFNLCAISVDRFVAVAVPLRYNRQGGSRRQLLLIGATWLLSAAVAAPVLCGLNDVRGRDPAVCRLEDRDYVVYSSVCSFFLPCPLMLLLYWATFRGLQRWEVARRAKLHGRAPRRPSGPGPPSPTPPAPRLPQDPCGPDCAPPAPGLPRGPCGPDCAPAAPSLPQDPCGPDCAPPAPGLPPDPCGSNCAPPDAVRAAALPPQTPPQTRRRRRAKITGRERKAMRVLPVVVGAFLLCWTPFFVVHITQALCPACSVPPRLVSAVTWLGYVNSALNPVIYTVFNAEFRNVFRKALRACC

The target of a further assay is Cannabinoid receptor 1 (Homo sapiens, UniProt P21554). It is filed as functional.
In assay [2] the target is T2, Alpha-1A adrenergic receptor (Homo sapiens, UniProt P35348).
T2 sequence (P35348 whole entry): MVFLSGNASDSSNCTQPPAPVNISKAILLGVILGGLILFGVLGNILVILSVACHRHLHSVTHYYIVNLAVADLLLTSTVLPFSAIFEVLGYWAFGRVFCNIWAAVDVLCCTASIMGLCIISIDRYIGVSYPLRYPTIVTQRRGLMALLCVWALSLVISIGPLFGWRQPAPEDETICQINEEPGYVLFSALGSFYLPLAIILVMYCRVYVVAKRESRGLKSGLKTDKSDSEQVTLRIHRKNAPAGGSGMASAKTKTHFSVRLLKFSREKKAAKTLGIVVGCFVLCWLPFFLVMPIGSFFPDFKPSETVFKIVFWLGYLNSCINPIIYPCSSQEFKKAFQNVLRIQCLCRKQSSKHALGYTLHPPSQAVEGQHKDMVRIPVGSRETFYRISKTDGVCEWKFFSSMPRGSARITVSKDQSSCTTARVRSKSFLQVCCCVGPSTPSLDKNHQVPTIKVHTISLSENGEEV

The target of assay [3] is Gamma-aminobutyric acid type B receptor subunit 1 (Homo sapiens, UniProt Q9UBS5).
Assay [4] concerns the target T3, Muscarinic acetylcholine receptor M4 (Homo sapiens, UniProt P08173).
T3 sequence (P08173 whole entry): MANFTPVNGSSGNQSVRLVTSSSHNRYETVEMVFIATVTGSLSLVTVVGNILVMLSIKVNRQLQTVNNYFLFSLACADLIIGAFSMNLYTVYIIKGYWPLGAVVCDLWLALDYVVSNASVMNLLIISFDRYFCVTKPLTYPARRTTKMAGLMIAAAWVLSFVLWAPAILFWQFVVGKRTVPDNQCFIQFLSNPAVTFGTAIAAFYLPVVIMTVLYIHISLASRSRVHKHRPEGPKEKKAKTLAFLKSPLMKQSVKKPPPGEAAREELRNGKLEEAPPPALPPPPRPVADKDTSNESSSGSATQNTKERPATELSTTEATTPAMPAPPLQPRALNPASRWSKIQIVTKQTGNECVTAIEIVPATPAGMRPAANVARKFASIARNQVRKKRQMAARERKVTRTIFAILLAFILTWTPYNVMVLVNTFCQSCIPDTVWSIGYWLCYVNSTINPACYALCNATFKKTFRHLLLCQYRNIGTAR

Assay [5] concerns the target 5-hydroxytryptamine receptor 6 (Homo sapiens, UniProt P50406).
The target of assay [6] is Beta-1 adrenergic receptor (Homo sapiens, UniProt P08588). The format is functional, cell-based.
Note: assay procedure not described here.

Sequence of D(1B) dopamine receptor (P21918 whole entry): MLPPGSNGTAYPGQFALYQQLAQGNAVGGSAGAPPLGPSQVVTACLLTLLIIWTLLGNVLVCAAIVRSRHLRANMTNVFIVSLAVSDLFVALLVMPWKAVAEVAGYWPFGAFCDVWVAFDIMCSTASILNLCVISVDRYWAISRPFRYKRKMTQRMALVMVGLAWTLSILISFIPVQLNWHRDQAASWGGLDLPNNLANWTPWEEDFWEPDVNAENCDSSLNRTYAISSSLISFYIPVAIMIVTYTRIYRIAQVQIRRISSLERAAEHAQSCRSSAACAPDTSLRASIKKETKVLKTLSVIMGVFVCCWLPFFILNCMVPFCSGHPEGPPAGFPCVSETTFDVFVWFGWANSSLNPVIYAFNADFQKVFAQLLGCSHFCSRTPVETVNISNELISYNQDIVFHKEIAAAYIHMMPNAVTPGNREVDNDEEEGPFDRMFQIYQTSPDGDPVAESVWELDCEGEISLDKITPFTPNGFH
Sequence of Substance-P receptor (P25103 whole entry): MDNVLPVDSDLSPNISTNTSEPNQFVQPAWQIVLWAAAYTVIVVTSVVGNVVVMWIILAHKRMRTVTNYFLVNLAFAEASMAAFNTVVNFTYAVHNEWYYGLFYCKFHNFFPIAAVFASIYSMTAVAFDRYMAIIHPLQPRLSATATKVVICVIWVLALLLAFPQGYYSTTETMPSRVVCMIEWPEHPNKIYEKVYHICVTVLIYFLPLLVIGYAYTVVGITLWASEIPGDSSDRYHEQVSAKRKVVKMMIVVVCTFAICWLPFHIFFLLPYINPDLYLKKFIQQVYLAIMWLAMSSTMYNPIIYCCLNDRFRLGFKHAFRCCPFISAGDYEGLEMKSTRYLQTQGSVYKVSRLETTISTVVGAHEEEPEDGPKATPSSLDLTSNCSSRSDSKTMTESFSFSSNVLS
Sequence of 5-hydroxytryptamine receptor 6 (P50406 whole entry): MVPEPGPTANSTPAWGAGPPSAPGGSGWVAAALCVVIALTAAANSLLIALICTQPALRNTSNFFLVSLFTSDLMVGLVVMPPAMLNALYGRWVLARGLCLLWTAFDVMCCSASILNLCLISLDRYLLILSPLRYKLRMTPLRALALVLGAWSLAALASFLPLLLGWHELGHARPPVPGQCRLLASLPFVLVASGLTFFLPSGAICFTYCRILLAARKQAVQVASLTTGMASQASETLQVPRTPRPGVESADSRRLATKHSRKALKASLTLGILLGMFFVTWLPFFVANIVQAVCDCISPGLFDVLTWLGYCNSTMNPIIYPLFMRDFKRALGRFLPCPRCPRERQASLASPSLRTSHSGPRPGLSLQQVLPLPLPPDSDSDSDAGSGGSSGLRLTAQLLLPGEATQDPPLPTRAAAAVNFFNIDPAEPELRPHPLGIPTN
Sequence of Gamma-aminobutyric acid type B receptor subunit 1 (Q9UBS5 whole entry): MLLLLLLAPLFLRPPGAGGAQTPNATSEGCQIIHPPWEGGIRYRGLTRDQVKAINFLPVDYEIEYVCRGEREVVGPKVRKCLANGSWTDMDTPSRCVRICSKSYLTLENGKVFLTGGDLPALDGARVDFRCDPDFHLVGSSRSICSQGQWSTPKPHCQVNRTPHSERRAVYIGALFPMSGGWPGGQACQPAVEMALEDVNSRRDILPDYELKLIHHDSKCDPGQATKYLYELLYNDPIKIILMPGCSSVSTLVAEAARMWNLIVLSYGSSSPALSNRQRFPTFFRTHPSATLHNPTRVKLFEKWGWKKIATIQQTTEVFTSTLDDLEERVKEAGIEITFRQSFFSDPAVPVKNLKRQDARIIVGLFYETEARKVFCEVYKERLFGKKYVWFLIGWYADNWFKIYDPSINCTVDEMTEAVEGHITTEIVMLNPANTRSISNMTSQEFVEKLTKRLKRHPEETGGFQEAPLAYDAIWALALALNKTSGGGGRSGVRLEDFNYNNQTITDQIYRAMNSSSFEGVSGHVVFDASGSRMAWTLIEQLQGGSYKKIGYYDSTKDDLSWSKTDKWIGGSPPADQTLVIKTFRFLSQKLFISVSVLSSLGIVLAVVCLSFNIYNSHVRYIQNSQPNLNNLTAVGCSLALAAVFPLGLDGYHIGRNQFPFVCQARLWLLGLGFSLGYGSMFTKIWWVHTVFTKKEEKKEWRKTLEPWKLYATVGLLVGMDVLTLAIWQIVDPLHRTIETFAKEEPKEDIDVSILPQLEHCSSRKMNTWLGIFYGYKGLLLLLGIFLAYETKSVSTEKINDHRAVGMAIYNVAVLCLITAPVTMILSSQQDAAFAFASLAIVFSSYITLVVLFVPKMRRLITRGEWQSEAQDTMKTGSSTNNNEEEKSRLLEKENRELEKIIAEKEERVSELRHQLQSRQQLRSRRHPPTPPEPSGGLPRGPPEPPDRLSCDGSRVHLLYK
Sequence of 5-hydroxytryptamine receptor 5A (P47898 whole entry): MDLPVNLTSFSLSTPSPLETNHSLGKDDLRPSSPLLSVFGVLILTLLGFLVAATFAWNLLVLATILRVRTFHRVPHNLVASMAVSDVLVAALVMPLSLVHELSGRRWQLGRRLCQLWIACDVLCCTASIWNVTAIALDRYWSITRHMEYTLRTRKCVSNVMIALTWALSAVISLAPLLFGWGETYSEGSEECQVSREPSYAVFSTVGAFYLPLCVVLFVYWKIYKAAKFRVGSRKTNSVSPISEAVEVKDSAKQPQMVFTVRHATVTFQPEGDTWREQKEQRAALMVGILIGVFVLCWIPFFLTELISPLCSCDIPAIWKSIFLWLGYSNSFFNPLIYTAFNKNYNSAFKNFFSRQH
Sequence of D(1A) dopamine receptor (P21728 whole entry): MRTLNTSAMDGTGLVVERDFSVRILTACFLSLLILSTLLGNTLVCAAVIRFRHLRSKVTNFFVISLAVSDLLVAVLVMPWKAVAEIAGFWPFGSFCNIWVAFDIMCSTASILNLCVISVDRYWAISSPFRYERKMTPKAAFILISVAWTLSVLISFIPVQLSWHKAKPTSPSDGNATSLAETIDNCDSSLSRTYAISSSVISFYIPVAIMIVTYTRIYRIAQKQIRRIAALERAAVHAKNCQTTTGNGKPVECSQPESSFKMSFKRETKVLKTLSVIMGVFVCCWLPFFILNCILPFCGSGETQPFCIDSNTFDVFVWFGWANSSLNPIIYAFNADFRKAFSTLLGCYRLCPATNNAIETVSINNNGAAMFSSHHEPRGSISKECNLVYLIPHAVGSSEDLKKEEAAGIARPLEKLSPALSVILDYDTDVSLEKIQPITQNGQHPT
Sequence of Cannabinoid receptor 1 (P21554 whole entry): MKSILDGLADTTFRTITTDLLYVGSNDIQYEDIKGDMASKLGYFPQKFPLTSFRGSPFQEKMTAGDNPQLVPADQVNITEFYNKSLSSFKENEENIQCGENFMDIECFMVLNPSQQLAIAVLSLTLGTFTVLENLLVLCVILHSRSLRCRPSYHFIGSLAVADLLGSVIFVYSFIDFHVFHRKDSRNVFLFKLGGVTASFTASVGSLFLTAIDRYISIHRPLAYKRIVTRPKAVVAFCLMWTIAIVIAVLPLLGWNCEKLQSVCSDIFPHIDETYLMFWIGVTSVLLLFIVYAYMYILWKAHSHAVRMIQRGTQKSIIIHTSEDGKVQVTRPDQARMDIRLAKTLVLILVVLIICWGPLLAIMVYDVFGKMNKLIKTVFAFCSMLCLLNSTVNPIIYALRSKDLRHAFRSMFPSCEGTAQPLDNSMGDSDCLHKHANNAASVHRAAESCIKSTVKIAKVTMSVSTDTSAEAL
Sequence of Beta-1 adrenergic receptor (P08588 whole entry): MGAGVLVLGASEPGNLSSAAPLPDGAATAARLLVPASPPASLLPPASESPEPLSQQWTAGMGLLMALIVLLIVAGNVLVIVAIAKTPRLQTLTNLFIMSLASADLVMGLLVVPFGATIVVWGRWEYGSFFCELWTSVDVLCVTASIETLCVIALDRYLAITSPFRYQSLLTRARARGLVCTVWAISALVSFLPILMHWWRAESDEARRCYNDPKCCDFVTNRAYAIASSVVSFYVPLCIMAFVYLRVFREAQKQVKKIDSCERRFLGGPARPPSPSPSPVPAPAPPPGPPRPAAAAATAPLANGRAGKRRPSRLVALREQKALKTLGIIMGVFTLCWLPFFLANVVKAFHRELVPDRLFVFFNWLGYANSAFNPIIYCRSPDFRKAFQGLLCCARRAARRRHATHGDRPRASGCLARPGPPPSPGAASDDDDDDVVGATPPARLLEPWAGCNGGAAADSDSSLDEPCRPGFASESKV
Sequence of Estrogen receptor beta (Q92731 whole entry): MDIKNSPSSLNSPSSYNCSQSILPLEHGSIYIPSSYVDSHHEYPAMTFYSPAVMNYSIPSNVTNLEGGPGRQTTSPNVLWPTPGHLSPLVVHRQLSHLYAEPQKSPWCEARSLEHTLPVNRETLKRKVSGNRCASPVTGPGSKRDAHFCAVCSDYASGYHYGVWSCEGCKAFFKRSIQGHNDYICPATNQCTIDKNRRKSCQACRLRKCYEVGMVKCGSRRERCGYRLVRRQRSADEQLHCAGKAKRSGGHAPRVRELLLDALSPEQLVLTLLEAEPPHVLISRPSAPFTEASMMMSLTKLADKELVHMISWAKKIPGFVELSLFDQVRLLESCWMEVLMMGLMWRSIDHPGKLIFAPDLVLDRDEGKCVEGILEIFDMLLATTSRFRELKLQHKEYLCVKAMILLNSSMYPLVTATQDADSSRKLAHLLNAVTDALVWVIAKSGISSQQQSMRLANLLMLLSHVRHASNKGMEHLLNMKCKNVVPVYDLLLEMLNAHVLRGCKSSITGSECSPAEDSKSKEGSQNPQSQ

The AC50 is the midpoint of the concentration-response curve, whichever way the signal moves. Read a low AC50 as greater potency. Take `Cc1ccc(-c2nc3ccc(C)cn3c2CC(=O)N(C)C)cc1` [ZOLPIDEM]: the concentration at half-maximal activity (AC50) (in assay [1]; on D(1B) dopamine receptor; at D(4) dopamine receptor; at Cannabinoid receptor 1; in assay [2]; in [3]) was greater than 10 µM each time. The half-maximal activity concentration (AC50) (at Substance-P receptor; in assay [4]; on D(1A) dopamine receptor; in assay [5]) was greater than 10 µM in each case.

Take `O=C(O)Cc1cn(-c2ccccc2)nc1-c1ccc(Cl)cc1` [LONAZOLAC]: the half-maximal activity concentration (AC50) in [6] is greater than 30 µM.

As to `CCC(C(=O)O)c1ccc(CC(C)C)cc1` (centres undefined) [BUTIBUFEN], in assay [6], the AC50 is greater than 30 µM.

For the compound `NC(=O)C[S+]([O-])C(c1ccccc1)c1ccccc1` (centres undefined) [MODAFINIL], the concentration at half-maximal activity (AC50) (in assay [1]; on D(1B) dopamine receptor; on D(4) dopamine receptor; on Cannabinoid receptor 1; in assay [2]; in assay [3]) was greater than 10 µM each time. Further, the AC50 was greater than 10 µM on Substance-P receptor; greater than 10 µM in assay [4]; greater than 10 µM on D(1A) dopamine receptor; greater than 30 µM on Estrogen receptor beta; greater than 10 µM in [5].

In assay [6], `COc1c(C)c2c(c(O)c1C/C=C(\C)CCC(=O)OCCN1CCOCC1)C(=O)OC2` [MYCOPHENOLATE MOFETIL] came in with an AC50 greater than 30 µM.

`C#C[C@]1(O)CC[C@H]2[C@@H]3CCC4=CCCC[C@@H]4[C@H]3CC[C@@]21C` [LYNESTRENOL] had an AC50 in [6] greater than 30 µM.

In turn, `Cc1c(Cl)cccc1Nc1ccccc1C(=O)O` [TOLFENAMIC ACID] returned a concentration at half-maximal activity (AC50) in assay [6] greater than 30 µM.

`C1=Cc2cccc(OCC3CNCCO3)c2C1` (centres undefined) [INDELOXAZINE] returned a concentration at half-maximal activity (AC50) in [6] greater than 30 µM.

Compound `C[C@]12CCC(=O)C=C1CC[C@@H]1[C@@H]2CC[C@@]2(C)[C@H]1CC[C@]2(C)O` [METHYLTESTOSTERONE] gave an AC50 in assay [6] greater than 30 µM.

As for `CN(C)C(=O)OC1N=C(c2ccccc2)c2cc(Cl)ccc2N(C)C1=O` (centres undefined) [CAMAZEPAM], the AC50 (in assay [1]; on D(1B) dopamine receptor; at D(4) dopamine receptor; at Cannabinoid receptor 1; in assay [2]; in assay [3]) was greater than 10 µM in each case. For the same compound, the AC50 on Substance-P receptor is greater than 10 µM; in assay [4] it was greater than 10 µM; on D(1A) dopamine receptor it was greater than 10 µM; on Estrogen receptor beta, greater than 30 µM; in assay [5], greater than 10 µM.
